EC50 data for 25 molecules are collected here from patent publication US20210169892A1, “MODULATORS OF THE INTEGRATED STRESS PATHWAY” (Calico Life Sciences LLC, priority 2017, published 2021).

Usually EC50 stands for the concentration giving half of the maximal effect.

This test relates to HEK293T cells carrying the ATF4 luciferase reporter. Kind of test: ATF4-Luc assay (in vitro model of vanishing white matter disease). The format is cell-based. The settings on record: Homo sapiens, HEK-293T; HEK293T cells with ATF4 luciferase reporter, 1 μg/mL tunicamycin, 7 hours, One Glo luminescence. In outline:
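Reporter cells were stably generated by retroviral transduction and puromycin selection, then seeded at 30,000 cells/well. Next day, cells received 1 μg/mL tunicamycin with 200 nM test compound for 7 h, and luciferase luminescence was read with a one-step reagent. Values reported as EC50.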
On the technique in general: In a reporter assay the amount or activity of a reporter protein is the signal.

The structures appear in SMILES notation. Some results are limits rather than exact numbers.

Take `O=C(COc1ccc(Cl)c(F)c1)NC12CCC(NC(=O)[C@@H]3CCc4cc(F)ccc4O3)(CC1)C[C@@H]2O` [Compound 105, (2S)—N-{(3S)-4-[2-(4-chloro-3-fluorophenoxy)acetamido]-3-hydroxybicyclo[2.2.2]octan-1-yl}-6-fluoro-3,4-dihydro-2H-1-benzopyran-2-carboxamide]: the EC50 was below 0.01 µM. As for `O=C(COc1ccc(Cl)c(F)c1)NC12CC(NC(=O)[C@H]3COc4ccccc4O3)(C1)C2` [Compound 124, (2R)—N-{3-[2-(4-chloro-3-fluorophenoxy)acetamido]bicyclo[1.1.1]pentan-1-yl}-2,3-dihydro-1,4-benzodioxine-2-carboxamide], the figure is 0.01 to 0.05 µM. Next, `O=C(COc1ccc(Cl)c(F)c1)NC12CC(NC(=O)C3CN(S(=O)(=O)c4ccc(F)cc4)c4cc(Cl)ccc4O3)(C1)C2` (stereo not shown) [Compound 166, 6-chloro-N-{3-[2-(4-chloro-3-fluorophenoxy)acetamido]bicyclo[1.1.1]pentan-1-yl}-4-(4-fluorobenzene-1-sulfonyl)-3,4-dihydro-2H-1,4-benzoxazine-2-carboxamide]: 0.5 to 2 µM; `O=C(COc1ccc(Cl)c(F)c1)NC12CC(NC(=O)C3CN(C(=O)C4CCOCC4)c4cc(Cl)ccc4O3)(C1)C2` (stereo not shown) [Compound 151, 6-chloro-N-{3-[2-(4-chloro-3-fluorophenoxy)acetamido]bicyclo[1.1.1]pentan-1-yl}-4-(oxane-4-carbonyl)-3,4-dihydro-2H-1,4-benzoxazine-2-carboxamide]: 0.5 to 2 µM; `O=C(COc1ccc(Cl)c(F)c1)NC12CC(NC(=O)C3CN(C(=O)CCCC(F)(F)F)c4cc(Cl)ccc4O3)(C1)C2` (stereo not shown) [Compound 167, 6-chloro-N-{3-[2-(4-chloro-3-fluorophenoxy)acetamido]bicyclo[1.1.1]pentan-1-yl}-4-(5,5,5-trifluoropentanoyl)-3,4-dihydro-2H-1,4-benzoxazine-2-carboxamide]: 0.25 to 0.5 µM. Turning to `COc1cccc(C(=O)N2CC(C(=O)NC34CC(NC(=O)COc5ccc(Cl)c(F)c5)(C3)C4)Oc3ccc(Cl)cc32)c1` (stereo not shown) [Compound 146, 6-chloro-N-{3-[2-(4-chloro-3-fluorophenoxy)acetamido]bicyclo[1.1.1]pentan-1-yl}-4-(3-methoxybenzoyl)-3,4-dihydro-2H-1,4-benzoxazine-2-carboxamide], the EC50 fell in the range of 0.5 to 2 µM. Next, `O=C(COc1ccc(Cl)c(F)c1)NC12CC(NC(=O)C3CN(C(=O)CCC(F)(F)F)c4cc(Cl)ccc4O3)(C1)C2` (stereo not shown) [Compound 148, 6-chloro-N-{3-[2-(4-chloro-3-fluorophenoxy)acetamido]bicyclo[1.1.1]pentan-1-yl}-4-(4,4,4-trifluorobutanoyl)-3,4-dihydro-2H-1,4-benzoxazine-2-carboxamide]: 0.05 to 0.25 µM; `O=C(COc1ccc(Cl)c(F)c1)NC12CCC(NC(=O)C3CNc4ccccc4O3)(CC1)C[C@@H]2O` (stereo partly drawn) [Compound 110, N-{(3S)-4-[2-(4-chloro-3-fluorophenoxy)acetamido]-3-hydroxybicyclo[2.2.2]octan-1-yl}-3,4-dihydro-2H-1,4-benzoxazine-2-carboxamide]: 0.01 to 0.05 µM. As for `O=C(COc1ccc(Cl)c(F)c1)NC12CC(NC(=O)C3CNc4cc(F)c(F)cc4O3)(C1)C2` (stereo not shown) [Compound 108, N-{3-[2-(4-chloro-3-fluorophenoxy)acetamido]bicyclo[1.1.1]pentan-1-yl}-6,7-difluoro-3,4-dihydro-2H-1,4-benzoxazine-2-carboxamide], the figure is below 0.01 µM; as for `O=C(COc1ccc(Cl)c(F)c1)NC12CC(NC(=O)C3CN(C(=O)CC(F)(F)C(F)(F)F)c4cc(Cl)ccc4O3)(C1)C2` (stereo not shown) [Compound 141, 6-chloro-N-{3-[2-(4-chloro-3-fluorophenoxy)acetamido]bicyclo[1.1.1]pentan-1-yl}-4-(3,3,4,4,4-pentafluorobutanoyl)-3,4-dihydro-2H-1,4-benzoxazine-2-carboxamide], 0.01 to 0.05 µM; as for `O=C(COc1ccc(Cl)c(F)c1)NC12CC(NC(=O)C3CN(C(=O)[C@H]4C[C@@H]4F)c4cc(Cl)ccc4O3)(C1)C2` (stereo partly drawn) [Compound 138, 6-chloro-N-{3-[2-(4-chloro-3-fluorophenoxy)acetamido]bicyclo[1.1.1]pentan-1-yl}-4-[(1R,2S)-2-fluorocyclopropane-1-carbonyl]-3,4-dihydro-2H-1,4-benzoxazine-2-carboxamide], 0.25 to 0.5 µM. With `O=C(COc1ccc(Cl)c(F)c1)NC12CC(NC(=O)C3Oc4ccccc4NC3=O)(C1)C2` (stereo not shown) [Compound 109, N-{3-[2-(4-chloro-3-fluorophenoxy)acetamido]bicyclo[1.1.1]pentan-1-yl}-3-oxo-3,4-dihydro-2H-1,4-benzoxazine-2-carboxamide], the EC50 fell in the range of 0.5 to 2 µM.

`O=C(COc1ccc(Cl)c(F)c1)NC12CC(NC(=O)C3CN(C(=O)c4ccc(S(=O)(=O)F)cc4)c4cc(Cl)ccc4O3)(C1)C2` (stereo not shown) [Compound 147, 4-[6-chloro-2-({3-[2-(4-chloro-3-fluorophenoxy)acetamido]bicyclo[1.1.1]pentan-1-yl}carbamoyl)-2,3-dihydro-4H-1,4-benzoxazine-4-carbonyl]benzene-1-sulfonyl fluoride]: the EC50 was 0.5 to 2 µM. Next, `CCOCCS(=O)(=O)N1CC(C(=O)NC23CC(NC(=O)COc4ccc(Cl)c(F)c4)(C2)C3)Oc2ccc(Cl)cc21` (stereo not shown) [Compound 139, 6-chloro-N-{3-[2-(4-chloro-3-fluorophenoxy)acetamido]bicyclo[1.1.1]pentan-1-yl}-4-(2-ethoxyethanesulfonyl)-3,4-dihydro-2H-1,4-benzoxazine-2-carboxamide]: 0.05 to 0.25 µM; `C[C@]1(C(=O)NC23CC(NC(=O)COc4ccc(Cl)c(F)c4)(C2)C3)COc2cc3c(cc21)OC(F)(F)O3` [Compound 131, (7R)—N-{3-[2-(4-chloro-3-fluorophenoxy)acetamido]bicyclo[1.1.1]pentan-1-yl}-2,2-difluoro-7-methyl-6,7-dihydro-2H-furo[2,3-f][1,3]benzodioxole-7-carboxamide]: 0.5 to 2 µM.

With `CC(C)(C)OC(=O)CN1C[C@@H](C(=O)NC23CCC(NC(=O)COc4ccc(Cl)c(F)c4)(CC2)C(O)C3)Oc2ccc(Cl)cc21` (stereo in doubt) [Compound 184, tert-butyl [(2S)-6-chloro-2-({(3S)-4-[2-(4-chloro-3-fluorophenoxy)acetamido]-3-hydroxybicyclo[2.2.2]octan-1-yl}carbamoyl)-2,3-dihydro-4H-1,4-benzoxazin-4-yl]acetate], the EC50 was 0.25 to 0.5 µM. As for `O=C(COc1ccc(Cl)c(F)c1)NC12CC(NC(=O)C3CN(C(=O)C(F)(F)C(F)(F)C(F)(F)F)c4cc(Cl)ccc4O3)(C1)C2` (stereo not shown) [Compound 159, 6-chloro-N-{3-[2-(4-chloro-3-fluorophenoxy)acetamido]bicyclo[1.1.1]pentan-1-yl}-4-(2,2,3,3,4,4,4-heptafluorobutanoyl)-3,4-dihydro-2H-1,4-benzoxazine-2-carboxamide], the figure is below 0.01 µM. On to `CN1C[C@@H](C(=O)NC23CCC(NC(=O)COc4ccc(Cl)c(F)c4)(CC2)[C@@H](O)C3)Oc2ccc(Cl)cc21` [Compound 107, 6-chloro-N-{(3S)-4-[2-(4-chloro-3-fluorophenoxy)acetamido]-3-hydroxybicyclo[2.2.2]octan-1-yl}-4-methyl-3,4-dihydro-2H-1,4-benzoxazine-2-carboxamide], for which the EC50 was below 0.01 µM. For the molecule `COCCC(=O)N1CC(C(=O)NC23CC(NC(=O)COc4ccc(Cl)c(F)c4)(C2)C3)Oc2ccc(Cl)cc21` (stereo not shown) [Compound 181, 6-chloro-N-{3-[2-(4-chloro-3-fluorophenoxy)acetamido]bicyclo[1.1.1]pentan-1-yl}-4-(3-methoxypropanoyl)-3,4-dihydro-2H-1,4-benzoxazine-2-carboxamide], the EC50 is 0.01 to 0.05 µM.

In the case of `CC(=O)N1CC(C(=O)NC23CC(NC(=O)COc4ccc(Cl)c(F)c4)(C2)C3)Oc2ccc(Cl)cc21` (stereo not shown) [Compound 157, 4-acetyl-6-chloro-N-{3-[2-(4-chloro-3-fluorophenoxy)acetamido]bicyclo[1.1.1]pentan-1-yl}-3,4-dihydro-2H-1,4-benzoxazine-2-carboxamide], the EC50 fell in the range of 0.01 to 0.05 µM.

Regarding `O=C(COc1ccc(Cl)c(F)c1)NC12CC(NC(=O)C3CN(C(=O)CO)c4cc(Cl)ccc4O3)(C1)C2` (stereo not shown) [Compound 136, 6-chloro-N-{3-[2-(4-chloro-3-fluorophenoxy)acetamido]bicyclo[1.1.1]pentan-1-yl}-4-(hydroxyacetyl)-3,4-dihydro-2H-1,4-benzoxazine-2-carboxamide], the EC50 is below 0.01 µM. Next, `O=C(COc1ccc(Cl)c(F)c1)NC12CC(NC(=O)[C@@H]3CN(C(=O)[C@H]4C[C@H]4F)c4cc(Cl)ccc4O3)(C1)C2` (single isomer, unassigned) [Compound 144]: 0.05 to 0.25 µM.

With `O=C(COc1ccc(Cl)c(Cl)c1)NC12CCC(NC(=O)[C@H]3COc4cc(Cl)ccc4O3)(CC1)C[C@@H]2O` [Compound 116, (2R)-6-chloro-N-{(3S)-4-[2-(3,4-dichlorophenoxy)acetamido]-3-hydroxybicyclo[2.2.2]octan-1-yl}-2,3-dihydro-1,4-benzodioxine-2-carboxamide], the EC50 was below 0.01 µM. As for `Cc1oncc1C(=O)N1CC(C(=O)NC23CC(NC(=O)COc4ccc(Cl)c(F)c4)(C2)C3)Oc2ccc(Cl)cc21` (stereo not shown) [Compound 153, 6-chloro-N-{3-[2-(4-chloro-3-fluorophenoxy)acetamido]bicyclo[1.1.1]pentan-1-yl}-4-(5-methyl-1,2-oxazole-4-carbonyl)-3,4-dihydro-2H-1,4-benzoxazine-2-carboxamide], the figure is 0.01 to 0.05 µM; as for `O=C(COc1ccc(Cl)c(F)c1)NC12CCC(NC(=O)[C@H]3CCc4cc(F)ccc4O3)(CC1)C[C@@H]2O` [Compound 106, (2R)—N-{(3S)-4-[2-(4-chloro-3-fluorophenoxy)acetamido]-3-hydroxybicyclo[2.2.2]octan-1-yl}-6-fluoro-3,4-dihydro-2H-1-benzopyran-2-carboxamide], below 0.01 µM.
